Laboratory results taken from patent publication US20170172944A1, “METHODS OF TREATING MELANOMA” (Mitchell Woods Pharmaceuticals, Inc., priority 2014, published 2017).

Experiments:
Type in all cases: cell-based, human
[1] = test system: UACC647 cells; test: [3H]-thymidine incorporation assay; conditions: serum-starved UACC647 cells, 24 hours
Procedure: [^3H]-Thymidine Incorporation Assay.
Cells were seeded in 12-well plates at approximately 50,000 cells/well and incubated at 37° C. After 24 hours, the wells were rinsed with PBS and replaced with serum-free medium containing the appropriate concentration of the test compounds. After another 24-hour incubation at 37° C., 1 μCi of [^3H]-thymidine was added to each well and incubated at 37° C. for 16 hours. [^3H]-Thymidine incorporation into DNA was monitored after the cells were washed twice with PBS and then lysed in 600 μl of 0.1 N NaOH for 30 minutes with shaking. The lysate was then mixed with 3 mL of liquid scintillation cocktail (Beckman Coulter, Inc., Brea, Calif.), and radioactivity was measured by liquid scintillation counting using Beckman Coulter LS6000IC Scintillation Counter. Data are shown as CPM incorporated compared to the control cells.
(§1) UACC-647, M93-047 and UACC-903 cells were seeded out on E-Plates and allowed to settle. Cells were stimulated with MNF. Cellular proliferation and adherence was measured every 15 minutes using xCELLigence RTCA station. Serum-starved UACC647 cells were incubated with range of (R,R′)-MNF concentrations for 24 hours and the levels of [3H]thymidine incorporation were measured.

[2] = test system: eukaryotic elongation factor 2 (eEF2) in UACC-647 cells; test: eEF2 phosphorylation (Western blot), UACC-647; conditions: UACC-647, serum starved 3 hours, 1 fM to 10 μM, 15 minutes
Procedure: (§2) Cells were lysed with RIPA buffer containing EGTA and EDTA (Boston BioProducts, Ashland, Mass.). The lysis buffer was mixed with a protease inhibitor cocktail (Sigma-Aldrich). Protein concentrations were measured using the bicinchoninic acid reagent (Thermo-Pierce Biotechnology, Inc., Rockford, Ill.). Proteins (20 μg/well) were separated on 4-12% precast gels (Invitrogen, Carlsbad, Calif.) using SDS-polyacrylamide gel electrophoresis under reducing conditions and were electrophoretically transferred onto polyvinylidene fluoride membrane (Invitrogen). Western blots were performed according to standard methods. The visualization of immunoreactive bands was performed using the ECL Plus Western Blotting Detection System (GE Healthcare, NJ) and their quantification was done by volume densitometry using Image J software and normalization to β-actin. […]
(§3) UACC-647, M93-047 and UACC-903 cells were serum starved for 3 hours and subjected to concentration gradient of (R,R′)-MNF (1 fM to 10 μM) or vehicle (DMSO, 0.1%) for 15 minutes. […] Proteins of interest were detected using (phospho)specific antibodies of rabbit origin and visualized by chemiluminescence. […] Levels of total and phosphorylated form of eEF2 were quantified in (R,R′)-MNF-treated cells by means of volume densitometry.

[3] = test system: eukaryotic elongation factor 2 (eEF2) in M93-047 cells; test: eEF2 phosphorylation (Western blot), M93-047; conditions: M93-047, serum starved 3 hours, 1 fM to 10 μM, 15 minutes
Procedure: as §2, §3

[4] = test system: melanoma cells (UACC-647, M93-047 and UACC-903); test: [35S] methionine labeling, de novo protein synthesis; conditions: 10 fM, 10 pM, 10 nM for 15 minutes, then [35S]Met/Cys labeling 30 minutes
Procedure: [^35S] Methionine Labeling.
Serum starved cells were incubated in serum-free medium without methionine and cysteine and treated with (R,R′)-MNF. Then, [^35S]Met/Cys labeling was carried out. Cell lysates were resolved by SDS-polyacrylamide gel electrophoresis and transferred onto PVD membrane, and autoradiography was performed. The membrane was probed with anti-β-actin antibody to confirm equal protein loading.
Serum starved (3 hours) UACC-647, M93-047 and UACC-903 cells were washed with PBS and incubated in serum-free medium without methionine and cysteine. Then, cells were treated with (R,R′)-MNF (10 fM, 10 pM, 10 nM) or incubated with vehicle (DMSO, 0.1%) for 15 minutes followed by [35S]Met/Cys labeling for 30 minutes. Cell lysates were resolved by SDS-PAGE and transferred onto PVD membrane, and autoradio-graphy was performed. The membrane was probed with anti-β-actin antibody to confirm equal protein loading. Amounts of de novo synthesized proteins were evaluated by means of volume densitometry. Obtained values were normalized to β-actin levels.

[5] = test system: UACC-647 cells; test: Scratch wound healing assay, UACC-647; conditions: UACC-647, 100 pM to 10 μM, 24 hours
Procedure: (§4) A scratch wound was made with a cell scraper. Cells were pictured using Axiovert 200 microscope and AxioCam HRc camera. (Carl Zeiss)
(§5) UACC-647, M93-047 and UACC-903 cells were cultured until confluency. Uniform scratch wounds were made on the monolayer cultures using cell scraper and the cells were challenge with (R,R′)-MNF (100 pM to 10 μM) or vehicle (DMSO, 0.1%). Images were captured at the onset of the treatment and after 24 hours.

[6] = test system: M93-047 cells; test: Scratch wound healing assay, M93-047; conditions: M93-047, 100 pM to 10 μM, 24 hours
Procedure: as §4, §5

[7] = test system: UACC-647 cells; test: Migration and invasion towards 10% FBS (xCELLigence RTCA), UACC-647; conditions: for migratory rate / effect of pretreatment on anti-migratory activity of MNF (100 nM): UACC-647, H-89 20 μM; for migratory rate: MNF 100 nM, Forskolin 10 μM; for effect of pretreatment on anti-migratory activity of MNF (100 nM): ICI 118,551 50 nM
Procedure: (§6) Assays were performed using xCELLigence RTCA Analyzer. Serum-starved cells were allowed to migrate or invade towards 10% FBS via bare microporous PET membrane or Matrigel-coated membrane, respectively.
(§7) Migration and Invasion Assay.
(§8) Migration and invasion of UACC-647, M93-047 and UACC-903 towards 10% FBS were monitored using xCELLigence system
(§9) Serum-starved UACC-647, M93-047 and UACC-903 cells were plated onto unmodified or Matrigel-coated CIM-Plates. The cells were treated with (R,R′)-MNF or vehicle (DMSO, 0.1%). Migration and invasion towards 10% FBS was monitored using xCELLigence RTCA station. Times of half-maximal infiltration of the cells towards serum were calculated and plotted against (R,R′)-MNF concentration.
ICI 118,551 and H-89 pretreatment blocked inhibitory activity of (R,R′)-MNF on UACC-647, while Forskolin mimicked (R,R′)-MNF. UACC-647 were serum-starved, pretreated with ICI 118,551, Forskolin, H-89 or DMSO and plated onto unmodified CIM-Plates. Migration towards 10% FBS was monitored using xCELLigence RTCA station. […] Forskolin (activator of adenylyl cyclase, 10 μM) mimicked MNF (100 nM). […] Pretreatment with H-89 blocked anti-migratory activity of MNF (100 nM).

[8] = test system: M93-047 cells; test: Migration and invasion towards 10% FBS (xCELLigence RTCA), M93-047
Procedure: as §6, §7, §8, §9

[9] = test system: UACC647 cells; test: Proliferation assay (xCELLigence RTCA), UACC647; conditions: UACC647, E-Plates, measured every 15 minutes
Procedure: (§10) UACC-647, M93-047 and UACC-903 cells were seeded out on E-Plates and allowed to settle. Cells were stimulated with MNF. Cellular proliferation and adherence was measured every 15 min using xCELLigence RTCA station.
as §1

[10] = test system: M93-047 cells; test: Proliferation assay (xCELLigence RTCA), M93-047; conditions: M93-047, E-Plates, measured every 15 minutes
Procedure: as §10, §1

[11] = test system: UACC-903 cells; test: Proliferation assay (xCELLigence RTCA), UACC-903; conditions: UACC-903 cells (lacking EGFR)
Procedure: as §10, §1

[12] = test system: phosphorylated ERK in UACC-647 cells; test: Phosphorylated ERK levels, UACC-647
Procedure: (§11) Levels of ERK1/2 and its phosphorylated forms were determined using PathScan ELISA kits according to manufacturer's protocol (Perkin Elmer Alphascreen Surefire ERK1/2 assay kit, cat no. TGRES500).
(§12) UACC-647, M93-047 or UACC-903 cells were serum starved for 3 hours and subjected to compound of interest or vehicle for 15 minutes.

[13] = test system: phosphorylated ERK in M93-047 cells; test: Phosphorylated ERK levels, M93-047; conditions: M93-047, serum starved 3 hours, 15 minutes
Procedure: as §11, §12

[14] = test system: phosphorylated MEK in UACC-647 cells; test: Phosphorylated MEK levels, UACC-647
Procedure: (R,R′)-MNF decreased basal phosphorylation levels of ERK and MEK. UACC-647, M93-047 or UACC-903 cells were serum starved for 3 hours and subjected to compound of interest or vehicle for 15 minutes. […] Cell pretreatment with 50 nM ICI 118,551 abolished MNF-evoked drop in phospho ERK levels in UACC647.

Row | SMILES | IC50 ([1]; Homo sapiens) [nM] | inhibition of incorporation of radiolabelled thymidine ([1]; range of concentrations) [%] | rapid phosphorylation of eEF2 [2] | rapid phosphorylation of eEF2 [3] | de novo protein synthesis [4] | motility (scratch wound) [5] | motility (scratch wound) [6] | invasion towards 10% FBS ([7]; UACC-647, Matrigel-coated CIM-Plates) | migration towards 10% FBS ([7]; UACC-647, unmodified CIM-Plates) | migratory rate [7] | invasion towards 10% FBS ([8]; M93-047, Matrigel-coated CIM-Plates) | migration towards 10% FBS ([8]; M93-047, unmodified CIM-Plates) | proliferation [9] | proliferation [10] | growth [11] | nadir of U-shaped dose-response curve of phosphorylated ERK levels ([12]; UACC 647, serum starved 3 hours, 15 minutes) [nM] | nadir of U-shaped dose-response curve of phosphorylated ERK levels [13] [nM] | levels of phosphorylated MEK [14] | effect of pretreatment on anti-migratory activity of MNF (100 nM) [7] | effect of pretreatment on MNF-evoked drop in phospho ERK levels ([12]; UACC647, pretreatment 50 nM)
1 | COc1ccc(C[C@@H](C)NC[C@H](O)c2cc(O)cc(O)c2)c2ccccc12 [(R,R′)-MNF, (R,R′)-4′-methoxy-1-naphthylfenoterol] | 136 | 38±3.67 | induce rapid phosphorylation | induce rapid phosphorylation | inhibit | inhibit motility | inhibit motility | inhibit | inhibit migration | decreased migratory rate | inhibit | inhibit migration | inhibit proliferation | inhibit proliferation | did not inhibit | 1 | 1 | decreased |  | 
2 | O=S(=O)(NCCNC/C=C/c1ccc(Br)cc1)c1cccc2cnccc12 [H-89, reference compound] |  |  |  |  |  |  |  |  |  | increased migratory rate |  |  |  |  |  |  |  |  | blocked | 
3 | Cc1ccc(OCC(O)C(C)NC(C)C)c2c1CCC2 (stereo not shown) [ICI 118,551, 3-(isopropylamino)-1-[(7-methyl-4-indanyl)oxy]butan-2-ol, reference compound] |  |  |  |  |  |  |  |  |  |  |  |  |  |  |  |  |  |  | completely abolished | abolished
